Here are results for 61 molecules from a melting point compilation (Tetko et al.; mined from patent text by program, amines drawn as free bases though some values may be those of a salt).

Molecules are shown by their SMILES.

What is called melting point is the temperature, or range, at which the solid turns liquid. `CC1(C)CC(=NO)c2cc(Br)ccc21` displayed a melting point of 115 to 117 °C.
Next, `O=C(O)CCCC(=O)N[C@@H](Cc1ccc(-c2ccccc2)cc1)C(=O)NCCCCNc1ncccn1`: 228 °C.
Next, `COC(=O)c1cc(-c2nccs2)cc2c1OC(c1ccccc1)(c1ccccc1)O2`: 154 to 155 °C; `O=C1CC(c2cccc(-n3ccnn3)c2)=Nc2cc(O)c(-c3ccc(F)cc3)cc2N1`: more than 250 °C; `c1ccc2nc(C3CCCS3)ccc2c1` (stereo unspecified): 63 °C.
Next, `Oc1ccc2ccc(-c3ccccc3)cc2c1`: 205 °C; `COC(=O)CCc1cc(S(C)(=O)=O)cc(-c2nc(=O)c3ccc(Cl)cc3s2)n1`: 203 to 204 °C.
As for `O=C1O[C@H]2C[C@@H]1CC[C@@H]2I`, the melting point fell in the range of 130 to 131 °C.
Next, `C=Cc1cccc(-n2ncc(-c3ccc(S(C)(=O)=O)cc3)c(-c3ccc(F)cc3)c2=O)c1`: 182 to 183 °C; `Cc1ccc2nc(-c3cc(C(F)(F)F)nn3-c3ccc(S(C)(=O)=O)cc3)oc2c1`: 209 to 210 °C; `Nc1cnccc1CCCOc1cccnc1Oc1cccc(Cl)c1`: 140 to 142 °C.
On to `O=C(O)Cc1cccc2c(-c3ccc(F)cc3)onc12`, for which the melting point was 170 to 171 °C.
Next, `CON(C)C(=O)c1cc2n(n1)CCC2`: 45 to 50 °C; `CC1OC(O)CC(NC(=O)C(F)(F)F)C1(C)O` (stereo unspecified): 110 to 111 °C; `O=C(CN1C(=O)c2ccccc2C1=O)Nc1ccccc1-c1ccccc1`: 204 °C.
Next, `NC(=O)c1nccn1C1Cc2c(cccc2-c2ccccc2)C1=O` (stereo unspecified): 196 °C; `CC(C)COc1cc(-c2ccc(N)c(OCC(C)C)c2)ccc1N`: 270 °C.
Next, `CNC(=NCCCc1nc2cc(C3=NNC(=O)CC3C)ccc2[nH]1)NS(=O)(=O)c1ccccc1` (stereo unspecified): 258 to 260 °C; `CCCP(=O)(CCC)Cc1ccc(N)cc1`: 104 to 106 °C.
The molecule `CC(C)(C)COS(=O)(=O)c1ccc(Oc2c(Cl)cccc2[N+](=O)[O-])cc1` displayed a melting point of 111 to 112 °C.
Consider `CN(C)c1ccc(NS(=O)(=O)c2cccc(Br)c2)cc1`, for which the melting point fell in the range of 187 to 189 °C.
For the molecule `ClCc1cn2cccc(OCc3ccccc3)c2n1`, the melting point was 163 °C.
Next, `COc1cc(Nc2nc(N3CCOCC3)nc(-n3c(C(F)F)nc4c(OC)cccc43)n2)ncn1`: 256 to 259 °C; `CCOC(=O)C1=C(COCCNC(=O)N2CCN(C)CC2)NC(C)=C(C(=O)OC)C1c1ccccc1Cl` (stereo unspecified): 78 to 80 °C; `CCCCOC(=O)N(C)S(=O)(=O)c1cc([N+](=O)[O-])c(N(CCC)CCC)c([N+](=O)[O-])c1`: 99 to 101 °C.
Consider `N#CC(OC1OC2C(Br)C3CC1C2C3)c1cccc(Oc2ccccc2)c1` (stereo unspecified), for which the melting point is 65 °C.
On to `Cc1ccccc1-c1cc(C(F)(F)F)n2cnc(C#N)c2n1`, for which the melting point turned out to be 151 °C.
Next, `Oc1ccc(Nc2ncc3nc(Nc4c(F)cc(F)cc4F)n(C4CCCC4)c3n2)cn1`: 257 to 260 °C.
`O=C1c2c(Cl)cccc2-n2cnc(-c3nnco3)c2[C@@H]2CCN12`: the melting point lay in the range of 264 to 265 °C.
Next, `CCCNC(=O)c1nc(-c2ccccc2)c(-c2ccc(=O)n(CC)n2)s1`: 106 to 108 °C; `OCc1cnc2sc3c(n12)CCCC3`: 182 to 183 °C; `Cn1c(-c2cccs2)cnc1[C@H](Cc1ccccn1)N(C=O)c1cc2cc(Cl)ccc2o1`: 70 to 74 °C.
Consider `O=[N+]([O-])c1cc(Cl)c2c(c1)C(F)(F)C(F)(F)S2`, for which the melting point fell in the range of 61.5 to 62 °C.
`O=[N+]([O-])c1ccccc1CN1CCC(c2cc(-c3ccc(Cl)cc3)[nH]n2)CC1` displayed a melting point of 150 to 151 °C.
Next, `C=CCN1CC(=O)N(c2cc(C(=O)NCCCOc3ccc(C(C)(C)CC)cc3C(C)(C)CC)c(O)c3ccccc23)C1=S`: 204 to 205 °C.
Next, `CC12CC(F)C3C4CCC(=O)C=C4C=CC3C1CCC2=O` (stereo unspecified): 198 °C.
In the case of `Cc1cccc(-c2ncc(N)c(=O)n2CC(=O)NC(Cc2ccccc2)C(=O)C(F)(F)C(=O)NCC(=O)O)c1` (stereo unspecified), the melting point was 128 to 132 °C.
Next, `Cn1cc(C(=O)NCc2ccc(Cl)cc2)c(=O)c2cc(CO)cc(I)c21`: 242 to 244 °C; `O=C(CN1CCSCC1)N1CCN(Cc2ccc3c(c2)-c2[nH]nc(-c4ccsc4)c2C3)CC1`: 226 to 228 °C; `COC(=O)CNc1cccc(Br)c1`: 66 to 68 °C.
Next, `COc1cc(Nc2nccc(-c3ccc[nH]3)n2)cc(OC)c1OC`: 150 °C; `CCC(O)(C#CC(=O)c1ccc(SC)cc1)CC`: 49 to 50 °C.
Next, `CC(C)n1nc(-c2nc(C#N)c(C#N)nc2-c2ccccc2)ccc1=O`: 201 to 202 °C; `CC(C)(C)C(=O)c1c(CC(C)(C)C(=O)O)n(Cc2ccc(Cl)cc2)c2ccc(OCc3ccc4occc4n3)cc12`: 160 °C.
The molecule `COc1ccc2cc(N3CCN(C4CCC(c5c[nH]c6ccc(F)cc56)CC4)CC3)ccc2c1` (stereo unspecified) yielded a melting point of 200 to 203 °C.
Next, `O=C1Nc2ccc(Cl)c(Cl)c2C1=O`: 239 to 240 °C; `COc1ccc(S(=O)(=O)Nc2ccccc2NC(=O)c2cc(C)nc(Cl)c2)cc1`: 150 to 151 °C.
Next, `CCCN(Cc1ccc(-c2ccccc2-c2nnn[nH]2)cc1)c1nc(C)cnc1C(=O)OCC`: 172 to 174 °C; `O=C(O)COc1ccc(CCC(=O)c2ccc(-c3ccc(C(F)(F)F)cc3)s2)c(Cl)c1Cl`: 217 to 219 °C; `COCCN(CCOC)C(=O)c1ccc([N+](=O)[O-])cc1[N+](=O)[O-]`: 89 °C.
In the case of `CC#CCOc1cc(N(C)c2cccc(F)c2F)ncn1`, the melting point is 77.5 °C.
Next, `COC(=O)CCC(=O)NS(=O)(=O)c1ccc([N+](=O)[O-])cc1`: 156 °C.
Next, `CCOc1cccc(NC(=O)Nc2ccc3c(c2)CCN(C(=O)Nc2ccc(OCCO)cc2Cl)C3)c1`: 148 to 150 °C.
Next, `O=C(O)c1cc(=O)c2ccc(COc3ccc(OCc4ccc5ccccc5n4)cc3)cc2o1`: 216 to 219 °C.
Molecule `COc1ccccc1CNc1ccc2cc(Nc3ncc(C(F)(F)F)o3)ccc2n1` came in with a melting point of 166 °C.
Next, `Cc1nc(-c2ccc(C=CC3CN4CCC3CC4)cc2)no1` (stereo unspecified): 93 to 97 °C; `CC(C)(C)c1cc(Cl)c(Cl)cc1[N+](=O)[O-]`: 80 °C.
Next, `COc1ccccc1-c1[nH]c2cccc3c2c1CCNC3=O`: 254 to 255 °C.
In turn, `Cc1nnc(-c2ccc3occ(-c4ccc(S(=O)CF)cc4)c3c2)o1` (stereo unspecified) registered a melting point of 173 to 174 °C.
Regarding `Cc1ccc(S(=O)(=O)N2CC(O)CC2C(=O)O)cc1` (stereo unspecified), the melting point lay within 146 to 147 °C.
As for `O=S(=O)(Nc1ccc(Cl)cc1-c1cc(-c2ccc(Cl)cc2Cl)on1)C(F)(F)F`, the melting point was 142 to 144 °C.
